Results on 14 compounds are retold here after ChEMBL document CHEMBL5291721, “A preclinical secondary pharmacology resource illuminates target-adverse drug reaction associations of marketed drugs” (Nat Commun, 2023).

The target in assay [1] is Vasopressin V1a receptor (Homo sapiens, UniProt P37288).
In assay [2] the target is Neuronal acetylcholine receptor subunit alpha-4 (Homo sapiens, UniProt P43681).
Assay [3] deals with Melanocortin receptor 3 (Homo sapiens, UniProt P41968).
In assay [4] the target is Beta-2 adrenergic receptor (Homo sapiens, UniProt P07550). Format: functional, cell-based.
Beta-2 adrenergic receptor, sequence (P07550 whole entry): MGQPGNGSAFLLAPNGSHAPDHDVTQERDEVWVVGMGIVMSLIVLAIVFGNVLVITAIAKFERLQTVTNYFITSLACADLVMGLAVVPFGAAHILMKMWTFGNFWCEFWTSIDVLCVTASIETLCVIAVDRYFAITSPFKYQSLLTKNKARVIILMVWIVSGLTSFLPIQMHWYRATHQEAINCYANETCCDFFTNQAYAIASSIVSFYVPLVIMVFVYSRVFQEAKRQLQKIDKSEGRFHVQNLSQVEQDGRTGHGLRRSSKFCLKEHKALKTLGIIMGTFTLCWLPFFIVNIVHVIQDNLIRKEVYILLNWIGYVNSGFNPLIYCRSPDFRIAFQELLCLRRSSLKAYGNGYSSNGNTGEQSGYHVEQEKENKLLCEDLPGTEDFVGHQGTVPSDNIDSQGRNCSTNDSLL
For assay [5], the target named is T1, B2 bradykinin receptor (Homo sapiens, UniProt P30411).
T1 sequence (P30411 whole entry): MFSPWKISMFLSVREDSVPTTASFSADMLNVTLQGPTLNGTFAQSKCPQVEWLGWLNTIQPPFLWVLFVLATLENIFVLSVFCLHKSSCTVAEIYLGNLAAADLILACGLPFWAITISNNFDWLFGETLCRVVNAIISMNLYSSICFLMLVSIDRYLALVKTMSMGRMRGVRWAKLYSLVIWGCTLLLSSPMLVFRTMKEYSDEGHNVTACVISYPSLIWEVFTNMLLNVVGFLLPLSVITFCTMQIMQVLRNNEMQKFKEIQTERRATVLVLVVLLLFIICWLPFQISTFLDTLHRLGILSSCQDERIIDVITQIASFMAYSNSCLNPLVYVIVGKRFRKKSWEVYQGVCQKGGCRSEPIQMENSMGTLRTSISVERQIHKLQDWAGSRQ

Assay [6] addresses Vasopressin V2 receptor (Homo sapiens, UniProt P30518).
In assay [7] the target is T2, 5-hydroxytryptamine receptor 1A (Homo sapiens, UniProt P08908).
T2 sequence (P08908 whole entry): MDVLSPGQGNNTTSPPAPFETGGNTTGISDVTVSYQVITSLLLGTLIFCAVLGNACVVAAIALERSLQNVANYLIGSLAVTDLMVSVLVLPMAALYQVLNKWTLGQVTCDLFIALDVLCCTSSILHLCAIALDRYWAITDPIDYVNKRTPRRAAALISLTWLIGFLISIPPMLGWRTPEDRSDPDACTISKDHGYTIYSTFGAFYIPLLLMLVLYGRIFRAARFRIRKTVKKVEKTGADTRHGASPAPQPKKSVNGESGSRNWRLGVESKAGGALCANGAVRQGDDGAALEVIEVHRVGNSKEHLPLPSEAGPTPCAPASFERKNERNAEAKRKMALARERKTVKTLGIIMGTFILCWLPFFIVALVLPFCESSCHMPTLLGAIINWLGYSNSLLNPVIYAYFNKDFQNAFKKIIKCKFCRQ
The format is functional, cell-based.

Assay [8] concerns the target T3, Type-1 angiotensin II receptor (Homo sapiens, UniProt P30556).
T3 sequence (P30556 whole entry): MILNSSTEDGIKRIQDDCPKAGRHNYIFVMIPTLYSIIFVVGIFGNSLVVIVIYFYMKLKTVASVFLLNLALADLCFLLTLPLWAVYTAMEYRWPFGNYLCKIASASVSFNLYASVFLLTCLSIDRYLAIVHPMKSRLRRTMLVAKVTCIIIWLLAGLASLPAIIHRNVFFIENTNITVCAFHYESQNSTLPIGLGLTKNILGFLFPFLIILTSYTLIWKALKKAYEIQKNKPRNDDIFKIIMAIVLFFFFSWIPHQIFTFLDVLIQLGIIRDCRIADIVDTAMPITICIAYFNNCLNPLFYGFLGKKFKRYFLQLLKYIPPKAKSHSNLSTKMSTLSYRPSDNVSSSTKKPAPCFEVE

The target of assay [9] is Gamma-aminobutyric acid receptor subunit alpha-1 (Rattus norvegicus, UniProt P62813). Format: functional.
Gamma-aminobutyric acid receptor subunit alpha-1, sequence (P62813 whole entry): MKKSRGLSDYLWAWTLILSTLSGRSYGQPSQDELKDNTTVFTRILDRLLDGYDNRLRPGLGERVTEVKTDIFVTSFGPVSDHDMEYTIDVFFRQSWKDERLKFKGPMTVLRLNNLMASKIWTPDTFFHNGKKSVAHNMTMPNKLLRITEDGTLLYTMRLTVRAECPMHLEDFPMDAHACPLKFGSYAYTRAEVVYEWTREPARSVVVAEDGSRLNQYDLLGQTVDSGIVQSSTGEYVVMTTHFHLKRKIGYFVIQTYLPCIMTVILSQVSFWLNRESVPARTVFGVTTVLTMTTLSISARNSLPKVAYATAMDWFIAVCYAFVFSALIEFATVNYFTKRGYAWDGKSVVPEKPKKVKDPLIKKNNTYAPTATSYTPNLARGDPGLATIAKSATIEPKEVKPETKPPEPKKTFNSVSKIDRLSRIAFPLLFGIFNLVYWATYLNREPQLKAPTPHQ
For assay [10], the target named is Histamine H2 receptor (Homo sapiens, UniProt P25021). The format is functional, cell-based.
Histamine H2 receptor, sequence (P25021 whole entry): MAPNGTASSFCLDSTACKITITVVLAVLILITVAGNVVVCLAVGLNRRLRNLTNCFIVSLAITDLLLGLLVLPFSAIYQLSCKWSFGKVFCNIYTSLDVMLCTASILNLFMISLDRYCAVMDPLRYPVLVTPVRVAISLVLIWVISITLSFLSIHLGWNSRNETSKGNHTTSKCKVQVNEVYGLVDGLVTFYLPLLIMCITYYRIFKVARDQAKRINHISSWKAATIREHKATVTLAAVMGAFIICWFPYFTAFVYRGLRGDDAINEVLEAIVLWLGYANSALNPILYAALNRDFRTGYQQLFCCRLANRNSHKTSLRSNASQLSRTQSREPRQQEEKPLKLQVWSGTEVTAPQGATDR
Assay [11] has as its target T4, Amine oxidase [flavin-containing] A (Homo sapiens, UniProt P21397).
T4 sequence (P21397 whole entry): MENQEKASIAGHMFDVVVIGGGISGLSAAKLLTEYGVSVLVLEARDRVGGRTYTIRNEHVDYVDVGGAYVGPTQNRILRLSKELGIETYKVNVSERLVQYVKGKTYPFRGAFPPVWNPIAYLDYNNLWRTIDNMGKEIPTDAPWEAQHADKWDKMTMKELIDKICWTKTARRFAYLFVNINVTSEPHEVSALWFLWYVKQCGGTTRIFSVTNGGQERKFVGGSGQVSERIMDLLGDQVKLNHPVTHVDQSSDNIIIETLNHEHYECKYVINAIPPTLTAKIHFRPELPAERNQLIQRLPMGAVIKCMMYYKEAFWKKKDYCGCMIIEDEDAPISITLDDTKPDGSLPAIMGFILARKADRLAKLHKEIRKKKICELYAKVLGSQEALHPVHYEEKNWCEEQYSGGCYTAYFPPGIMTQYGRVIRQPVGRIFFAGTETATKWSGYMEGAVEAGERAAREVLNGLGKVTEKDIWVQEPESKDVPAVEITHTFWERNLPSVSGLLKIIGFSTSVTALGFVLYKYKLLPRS
Format: functional.

What is called AC50 is the concentration at which the activity in the assay is half-maximal. Read a high AC50 as activity only at high concentration.
Further: assay procedure not described here.

Melanocortin receptor 3, sequence (P41968 whole entry): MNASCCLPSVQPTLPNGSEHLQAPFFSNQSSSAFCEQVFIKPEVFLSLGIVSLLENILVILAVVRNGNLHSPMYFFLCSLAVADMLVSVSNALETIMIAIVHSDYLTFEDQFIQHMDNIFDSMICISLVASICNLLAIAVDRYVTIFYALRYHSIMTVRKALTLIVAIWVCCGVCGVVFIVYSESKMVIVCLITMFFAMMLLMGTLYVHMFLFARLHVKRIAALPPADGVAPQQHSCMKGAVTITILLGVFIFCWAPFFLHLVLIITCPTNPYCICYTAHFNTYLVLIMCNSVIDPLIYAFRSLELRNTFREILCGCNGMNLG
Vasopressin V1a receptor, sequence (P37288 whole entry): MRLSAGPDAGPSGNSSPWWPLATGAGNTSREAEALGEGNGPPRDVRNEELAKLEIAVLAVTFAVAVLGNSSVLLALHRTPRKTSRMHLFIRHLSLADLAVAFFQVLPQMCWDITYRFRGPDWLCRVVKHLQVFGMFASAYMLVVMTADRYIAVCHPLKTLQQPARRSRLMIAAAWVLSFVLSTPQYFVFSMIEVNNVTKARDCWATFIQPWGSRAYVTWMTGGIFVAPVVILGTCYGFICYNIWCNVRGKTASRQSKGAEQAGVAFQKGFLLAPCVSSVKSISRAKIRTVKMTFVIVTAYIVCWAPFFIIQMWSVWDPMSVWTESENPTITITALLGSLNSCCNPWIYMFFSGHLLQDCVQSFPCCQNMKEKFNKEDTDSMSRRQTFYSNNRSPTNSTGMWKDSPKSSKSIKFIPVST
Vasopressin V2 receptor, sequence (P30518 whole entry): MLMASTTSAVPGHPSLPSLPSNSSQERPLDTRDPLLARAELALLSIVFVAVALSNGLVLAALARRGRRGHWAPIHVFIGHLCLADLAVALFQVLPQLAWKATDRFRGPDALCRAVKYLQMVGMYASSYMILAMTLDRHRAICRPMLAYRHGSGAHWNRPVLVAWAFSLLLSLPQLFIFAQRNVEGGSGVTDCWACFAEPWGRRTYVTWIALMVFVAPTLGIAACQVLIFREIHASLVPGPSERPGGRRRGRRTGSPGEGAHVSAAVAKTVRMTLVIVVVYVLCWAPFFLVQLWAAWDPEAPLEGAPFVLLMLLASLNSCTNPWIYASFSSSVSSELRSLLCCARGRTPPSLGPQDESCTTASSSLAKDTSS
Neuronal acetylcholine receptor subunit alpha-4, sequence (P43681 whole entry): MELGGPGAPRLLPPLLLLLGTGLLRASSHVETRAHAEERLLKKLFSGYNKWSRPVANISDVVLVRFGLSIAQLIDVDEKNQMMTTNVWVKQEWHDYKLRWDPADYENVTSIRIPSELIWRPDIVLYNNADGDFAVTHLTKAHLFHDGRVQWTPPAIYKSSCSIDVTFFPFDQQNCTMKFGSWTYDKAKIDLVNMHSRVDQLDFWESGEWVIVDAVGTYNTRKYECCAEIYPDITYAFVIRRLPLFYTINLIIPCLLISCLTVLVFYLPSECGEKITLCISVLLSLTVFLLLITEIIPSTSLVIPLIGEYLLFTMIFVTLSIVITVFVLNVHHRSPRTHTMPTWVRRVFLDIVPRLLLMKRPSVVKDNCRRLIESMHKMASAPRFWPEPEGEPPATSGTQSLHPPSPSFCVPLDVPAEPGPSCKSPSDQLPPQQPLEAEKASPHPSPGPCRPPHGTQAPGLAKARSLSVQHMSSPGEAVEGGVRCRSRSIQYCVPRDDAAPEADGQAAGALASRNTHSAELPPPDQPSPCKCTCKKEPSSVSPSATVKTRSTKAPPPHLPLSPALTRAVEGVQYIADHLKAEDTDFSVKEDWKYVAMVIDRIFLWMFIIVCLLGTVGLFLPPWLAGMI

On to `CO/N=C(\C(=O)N[C@@H]1C(=O)N2C(C(=O)O)=C(COC(N)=O)CS[C@H]12)c1ccco1` [CEFUROXIME], for which the AC50 in assay [1], in assay [2], in assay [3], in [4], in assay [5] and in assay [6] was more than 30 µM throughout. Further, the AC50 in assay [7], in assay [8], in [9] and in assay [10] was more than 30 µM in each case.

Regarding `COC(=O)[C@H](c1ccccc1Cl)N1CCc2sccc2C1` [CLOPIDOGREL], the AC50 in [1], in assay [2], in assay [3], in assay [4], in assay [5] and in assay [6] was more than 30 µM each time. Besides, the AC50 in assay [7], in [8], in [9] and in [10] was more than 30 µM in each case.

In the case of `CCC(=O)O[C@@H](O[P@](=O)(CCCCc1ccccc1)CC(=O)N1C[C@H](C2CCCCC2)C[C@H]1C(=O)O)C(C)C` [FOSINOPRIL], the AC50 in assay [4], in assay [7], in assay [9], in [11] and in assay [10] was more than 30 µM each time.

Take `Cc1cnc(NC(=O)C2=C(O)c3ccccc3S(=O)(=O)N2C)s1` [MELOXICAM]: the AC50 is more than 10 µM in [1]; more than 10 µM in assay [2]; more than 30 µM in [3]; more than 30 µM in [4]; more than 30 µM in assay [5]; more than 30 µM in assay [6]. In addition, the AC50 was more than 10 µM in assay [7], more than 30 µM in [8], more than 10 µM in [9] and more than 10 µM in [10].

For `CC[C@@H](CO)NC(=O)[C@@H]1C=C2c3cccc4[nH]cc(c34)C[C@H]2N(C)C1` [METHYLERGONOVINE], the AC50 in [1], in assay [2], in assay [3], in assay [4], in [5] and in assay [6] was more than 30 µM each time. Also, the AC50 in assay [7] was 0.0144 µM; in assay [8], more than 30 µM; in assay [9], more than 30 µM; in assay [10], 0.058 µM.

As for `CN(C)c1cc(CNCC(C)(C)C)c(O)c2c1C[C@H]1C[C@H]3[C@H](N(C)C)C(O)=C(C(N)=O)C(=O)[C@@]3(O)C(O)=C1C2=O` [OMADACYCLINE], the AC50 in [1], in assay [2], in assay [3], in assay [4], in assay [5] and in assay [6] was more than 30 µM throughout. Also, the concentration at half-maximal activity (AC50) in [7], in assay [8], in assay [9], in assay [11] and in [10] was more than 30 µM throughout.

Turning to `COc1ccnc(C[S+]([O-])c2nc3ccc(OC(F)F)cc3[nH]2)c1OC` (centres undefined) [PANTOPRAZOLE], the AC50 in assay [1] is more than 10 µM; in [2], more than 10 µM; in assay [3], more than 30 µM; in assay [4], more than 30 µM; in [5], more than 30 µM; in [6], more than 30 µM. For the same compound, the AC50 in assay [7] is more than 10 µM; in [8], more than 30 µM; in assay [9], more than 10 µM; in assay [10] it was more than 10 µM.

As to `O=C1NC(=O)C(c2ccccc2)(c2ccccc2)N1` [PHENYTOIN], the AC50 in [1], in assay [2], in [3], in assay [4], in assay [5] and in [6] was more than 30 µM throughout. Moreover, the AC50 in [7] was more than 30 µM; in [8], more than 30 µM; in assay [9], more than 30 µM; in assay [10], more than 10 µM.

`CC(C)C[C@H](CN)CC(=O)O` [PREGABALIN]: the AC50 in assay [1], in [2], in assay [3], in assay [4], in assay [5] and in assay [6] was more than 30 µM throughout. Also, the AC50 in assay [7] is more than 30 µM; in assay [8], more than 30 µM; in assay [9], more than 30 µM; in assay [10] it was more than 10 µM.

On to `CNC(=O)c1cc(Oc2ccc(NC(=O)Nc3ccc(Cl)c(C(F)(F)F)c3)c(F)c2)ccn1` [REGORAFENIB], for which the AC50 in [2], in assay [3], in assay [4] and in [11] was more than 30 µM throughout.

Consider `CCCN(CCC)CCc1cccc2c1CC(=O)N2` [ROPINIROLE], for which the AC50 in assay [1], in assay [2], in [3], in assay [4], in [5] and in [6] was more than 30 µM in each case. Further, the AC50 in assay [7] is more than 30 µM; in assay [8] it was more than 30 µM; in assay [9] it was more than 30 µM; in [10], more than 10 µM.

Consider `CC(=O)S[C@@H]1CC2=CC(=O)CC[C@]2(C)[C@H]2CC[C@@]3(C)[C@@H](CC[C@@]34CCC(=O)O4)[C@H]12` [SPIRONOLACTONE], for which the AC50 in assay [1], in assay [2], in assay [3], in [4], in [5] and in [6] was more than 30 µM in each case. Moreover, the AC50 in [7] was more than 30 µM; in [8] it was more than 30 µM; in assay [9], more than 10 µM; in assay [10], more than 10 µM.

As to `CN1CCN(CCCN2c3ccccc3Sc3ccc(S(=O)(=O)N(C)C)cc32)CC1` [THIOPROPERAZINE], the AC50 in assay [4], in assay [9], in assay [11] and in [10] was more than 30 µM each time.

`Cc1cc(CC(=O)O)n(C)c1C(=O)c1ccc(Cl)cc1` [ZOMEPIRAC]: the AC50 in assay [1], in [2], in assay [3], in assay [4], in assay [5] and in [6] was more than 30 µM throughout. For the same compound, the concentration at half-maximal activity (AC50) in assay [7], in assay [8], in [9] and in assay [10] was more than 30 µM in each case.
